From the NIST ThermoML archive (doi:10.1016/j.jct.2008.11.003)
Numbers after ± are expanded uncertainties.

What was measured:
[1] = 101.33 kPa, Liquid; for mass density: Vibrating tube method; for viscosity: Cone and plate viscometry
[2] = refractive index (Na D-line) (dimensionless); details: 101.33 kPa, Liquid, Standard Abbe refractometry

Row | Structure (SMILES) | mass density ([1]; 293.15 K) | viscosity ([1]; 298.2 K) | mass density ([1]; 303.15 K) | viscosity ([1]; 303.2 K) | viscosity ([1]; 308.2 K) | mass density ([1]; 313.15 K) | viscosity ([1]; 313.2 K) | viscosity ([1]; 318.2 K) | mass density ([1]; 323.15 K) | viscosity ([1]; 323.2 K) | viscosity ([1]; 328.2 K) | mass density ([1]; 333.15 K) | viscosity ([1]; 333.2 K) | viscosity ([1]; 338.2 K) | mass density ([1]; 343.15 K) | viscosity ([1]; 343.2 K) | viscosity ([1]; 348.2 K) | mass density ([1]; 353.15 K) | mass density ([1]; 363.15 K) | refractive index ([2]; 293.15 K) | further results
1 | CC(=O)[O-].OCC[NH2+]CCO [2,2'-azanediylbis(ethanol) acetate] | 1173.85 ± 11 kg/m3 | 566.89 ± 120 mPa·s | 1166.39 ± 11 kg/m3 | 376.59 ± 77 mPa·s | 260.02 ± 53 mPa·s | 1160.12 ± 11 kg/m3 | 183.97 ± 37 mPa·s | 136.06 ± 28 mPa·s | 1153.96 ± 11 kg/m3 | 101.06 ± 20 mPa·s | 78.35 ± 16 mPa·s | 1147.64 ± 11 kg/m3 | 60.25 ± 12 mPa·s | 48.79 ± 9.8 mPa·s | 1141.22 ± 11 kg/m3 | 38.65 ± 7.8 mPa·s | 31.51 ± 6.3 mPa·s | 1134.66 ± 11 kg/m3 | 1127.97 ± 11 kg/m3 | 1.43431 ± 0.05 | refractive index ([2]; 298.15 K): 1.43338 ± 0.05; refractive index ([2]; 303.15 K): 1.43238 ± 0.05; refractive index ([2]; 308.15 K): 1.43137 ± 0.05; refractive index ([2]; 313.15 K): 1.43029 ± 0.05; refractive index ([2]; 318.15 K): 1.42916 ± 0.05; refractive index ([2]; 323.15 K): 1.42798 ± 0.05; refractive index ([2]; 328.15 K): 1.42673 ± 0.05; refractive index ([2]; 333.15 K): 1.42547 ± 0.05
2 | CC(=O)[O-].[NH3+]CCO [2-hydroxyethylammonium acetate] | 1148.66 ± 11 kg/m3 | 313.15 ± 64 mPa·s | 1143.39 ± 11 kg/m3 | 224.68 ± 46 mPa·s | 162.91 ± 33 mPa·s | 1138.02 ± 11 kg/m3 | 120.26 ± 24 mPa·s | 92.56 ± 19 mPa·s | 1132.52 ± 11 kg/m3 | 70.68 ± 14 mPa·s | 56.56 ± 11 mPa·s | 1126.94 ± 11 kg/m3 | 43.91 ± 8.8 mPa·s | 34.98 ± 7 mPa·s | 1121.26 ± 11 kg/m3 | 29.04 ± 5.8 mPa·s | 24.05 ± 4.8 mPa·s | 1115.47 ± 11 kg/m3 | 1109.55 ± 11 kg/m3 | 1.43775 ± 0.05 | refractive index ([2]; 298.15 K): 1.43682 ± 0.05; refractive index ([2]; 303.15 K): 1.43593 ± 0.05; refractive index ([2]; 308.15 K): 1.4351 ± 0.05; refractive index ([2]; 313.15 K): 1.43428 ± 0.05; refractive index ([2]; 318.15 K): 1.43356 ± 0.05; refractive index ([2]; 323.15 K): 1.43287 ± 0.05; refractive index ([2]; 328.15 K): 1.43223 ± 0.05; refractive index ([2]; 333.15 K): 1.43164 ± 0.05
3 | CC(O)C(=O)[O-].[NH3+]CCO (stereo not given) [2-hydroxyethylammonium lactate] | 1204.52 ± 11 kg/m3 | 254.25 ± 52 mPa·s | 1197.84 ± 11 kg/m3 | 181.45 ± 37 mPa·s | 133.32 ± 27 mPa·s | 1191.86 ± 11 kg/m3 | 100.02 ± 20 mPa·s | 76.88 ± 15 mPa·s | 1185.78 ± 11 kg/m3 | 60.18 ± 12 mPa·s | 48.12 ± 9.7 mPa·s | 1179.64 ± 11 kg/m3 | 38.12 ± 7.7 mPa·s | 31.02 ± 6.2 mPa·s | 1173.45 ± 11 kg/m3 | 24.98 ± 5 mPa·s | 21.26 ± 4.3 mPa·s | 1167.19 ± 11 kg/m3 | 1160.86 ± 11 kg/m3 | 1.43858 ± 0.05 | refractive index ([2]; 298.15 K): 1.43758 ± 0.05; refractive index ([2]; 303.15 K): 1.43658 ± 0.05; refractive index ([2]; 308.15 K): 1.43557 ± 0.05; refractive index ([2]; 313.15 K): 1.43455 ± 0.05; refractive index ([2]; 318.15 K): 1.43354 ± 0.05; refractive index ([2]; 323.15 K): 1.43252 ± 0.05; refractive index ([2]; 328.15 K): 1.43148 ± 0.05; refractive index ([2]; 333.15 K): 1.43043 ± 0.05
4 | CC(=O)[O-].C[NH+](CCO)CCO [N-methyldiethanolammonium acetate] | 1141.42 ± 11 kg/m3 | 198.91 ± 40 mPa·s | 1132.76 ± 11 kg/m3 | 144.69 ± 29 mPa·s | 108.33 ± 22 mPa·s | 1125.85 ± 11 kg/m3 | 83.56 ± 17 mPa·s | 64.12 ± 13 mPa·s | 1118.75 ± 11 kg/m3 | 50.96 ± 10 mPa·s | 40.45 ± 8.1 mPa·s | 1111.46 ± 11 kg/m3 | 32.15 ± 6.5 mPa·s | 25.98 ± 5.2 mPa·s | 1103.98 ± 11 kg/m3 | 22.32 ± 4.5 mPa·s | 18.45 ± 3.7 mPa·s | 1096.28 ± 11 kg/m3 | 1088.36 ± 11 kg/m3 | 1.43302 ± 0.05 | refractive index ([2]; 298.15 K): 1.43215 ± 0.05; refractive index ([2]; 303.15 K): 1.43122 ± 0.05; refractive index ([2]; 308.15 K): 1.43023 ± 0.05; refractive index ([2]; 313.15 K): 1.42922 ± 0.05; refractive index ([2]; 318.15 K): 1.42813 ± 0.05; refractive index ([2]; 323.15 K): 1.42702 ± 0.05; refractive index ([2]; 328.15 K): 1.42583 ± 0.05; refractive index ([2]; 333.15 K): 1.42462 ± 0.05
5 | CC(O)C(=O)O.OCCNCCO [diethanolamine lactate] | 1206.34 ± 11 kg/m3 | 288.56 ± 59 mPa·s | 1198.77 ± 11 kg/m3 | 204.15 ± 41 mPa·s | 148.54 ± 30 mPa·s | 1192.47 ± 11 kg/m3 | 110.25 ± 22 mPa·s | 84.34 ± 17 mPa·s | 1186.14 ± 11 kg/m3 | 65.45 ± 13 mPa·s | 51.78 ± 10 mPa·s | 1179.73 ± 11 kg/m3 | 42.15 ± 8.5 mPa·s | 33.45 ± 6.7 mPa·s | 1173.25 ± 11 kg/m3 | 27.15 ± 5.5 mPa·s | 22.45 ± 4.5 mPa·s | 1166.69 ± 11 kg/m3 | 1160.03 ± 11 kg/m3 | 1.44156 ± 0.05 | refractive index ([2]; 298.15 K): 1.44142 ± 0.05; refractive index ([2]; 303.15 K): 1.44109 ± 0.05; refractive index ([2]; 308.15 K): 1.44056 ± 0.05; refractive index ([2]; 313.15 K): 1.43983 ± 0.05; refractive index ([2]; 318.15 K): 1.43891 ± 0.05; refractive index ([2]; 323.15 K): 1.43776 ± 0.05; refractive index ([2]; 328.15 K): 1.43642 ± 0.05; refractive index ([2]; 333.15 K): 1.43489 ± 0.05
